US5972894A, “Peptides having potassium channel opener activity” (Cytran, Inc., priority 1997, dated 1999)
Residues, ends and D or L forms follow the SMILES beside them.

Tested on: rats
Assay: Early ischemic myocardial arrhythmias after coronary artery ligation
Type: in vivo
Details: for Number of Ventricular Extrasystoles / Overall Duration of Ventricular Tachycardia: 30 min after coronary occlusion
Description: White random-bred male rats weighing 200 g were given light ether anesthesia and were then immobilized and artificially ventilated. The descending branch of the left coronary artery of each rat was ligated. Immediately following ligation, a test or control substance was administered to each rat through the catheterized femoral vein, and an ECG recording was initiated (standard lead II) and maintained for the next 30 minutes.
GE and VT served as test substances and were administered to animals in the respective test groups at doses of 0.1, 1.0, and 10.0 mg/kg. The β-adrenergic blocking agent, propranolol (Obzidan, Germed, Germany), served as the positive control substance and was administered intravenously to each animal in the positive control group at a dose of 0.5 mg/kg. Physiological saline served as the negative control substance and was administered intravenously to animals in the negative control group. Each dose of each test or control substance was tested separately on a group of nine animals.
The following parameters were evaluated based upon the ECG recordings: (i) the number of ventricular extrasystoles that occurred within a 30-minute observation period following coronary occlusion; (ii) the overall cumulative duration of ventricular tachycardias (i.e., the summation of duration of individual paroxysmal ventricular rhythm disturbances in seconds) occurring within the 30-minute observation period; and (iii) the overall duration (in seconds) of the ventricular fibrillations occurring within the 30-minute observation period. The data were processed electronically and statistical comparisons were made between the values obtained from the animals in the experimental test groups and those in the different respective control groups.

Structure (SMILES): NCC(=O)N[C@@H](CCC(=O)O)C(=O)O [GE, L-Glycyl-L-Glutamic acid] (H-Gly-Glu-OH)
- Number of Ventricular Extrasystoles (0.1 mg/kg i.v.): 25.22
- Overall Duration of Ventricular Tachycardia (0.1 mg/kg i.v.): 38.67 s
- Number of Ventricular Extrasystoles (1.0 mg/kg i.v.): 116.22
- Overall Duration of Ventricular Tachycardia (1.0 mg/kg i.v.): 93.17 s
- Number of Ventricular Extrasystoles (10.0 mg/kg i.v.): 47.78
- Overall Duration of Ventricular Tachycardia (10.0 mg/kg i.v.): 51.78 s
- effect on overall duration of ventricular tachycardias (all of the tested doses): reduced the overall duration of ventricular tachycardias
